Results: patent US4360511A, “Amines useful as brain imaging agents” (Medi-Physics, Inc., priority 1980, dated 1982)
Read-outs that look alike come from different tables or passages of the source.

Test: Bioassay: distribution of I-123-labeled compounds in organs of rats after tail vein injection (percent dose/gram, brain/blood ratio)
Format: in vivo, Female Sprague-Dawley rats
Settings: for Brain/Blood Ratio 5 min. / tissue uptake at 5 min: 5 minutes post-injection; for Brain/Blood Ratio 60 min. / tissue uptake at 1 h: 60 minutes post-injection; for tissue uptake at 5 min / tissue uptake at 1 h: rat, iv, 0.05 to 1.0 mCi, two rats
Procedure: Female Sprague-Dawley rats weighing approximately 150 g were anesthetized with sodium pentobarbital and were injected in a tail vein with from 0.05 to 1.0 mCi (in a volume of 0.2 to 0.5 ml) of the I-123-labeled compound. Two specimens were utilized for each test.
Two animals each were sacrificed at 5 minutes and 60 minutes post-injection, the tails discarded and the amount of activity in various organs determined. Each organ was counted at a standardized geometry with a sodium iodide crystal scintillation counter adjusted for the 159 keV emission of I-123. The organs were also weighed to one thousandth of a gram and the activity calculated as a percent of administered dose per gram of organ weight.
The ratio of brain-to-blood activity was calculated as a percent of administered dose per gram.

[1] = blood, read-out: Percent Dose/Gram Blood 5 min.
[2] = blood, read-out: Percent Dose/Gram Blood 60 min.
[3] = brain, read-out: Percent Dose/Gram Brain 5 min.
[4] = brain, read-out: Percent Dose/Gram Brain 60 min.
[5] = heart, read-out: Percent Dose/Gram Heart 5 min.
[6] = heart, read-out: Percent Dose/Gram Heart 60 min.

Structure (SMILES) | Brain/Blood Ratio 5 min. | Brain/Blood Ratio 60 min. | tissue uptake at 5 min [1] [%ID/g] | tissue uptake at 1 h [2] [%ID/g] | tissue uptake at 5 min [3] [%ID/g] | tissue uptake at 1 h [4] [%ID/g] | tissue uptake at 5 min [5] [%ID/g] | tissue uptake at 1 h [6] [%ID/g]
CC1CCCC(C)N1Cc1ccccc1[123I] (stereo not shown) [I--123-N--o-iodobenzyl-2,6-dimethylpiperidine] | 3.32 | 1.59 | 0.31 | 0.21 | 1.01 | 0.32 | 1.14 | 0.44
[123I]c1ccccc1CNc1ccccc1 [I--123-N--o-iodobenzylaniline] | 1.70 | 0.41 | 0.61 | 0.41 | 1.02 | 0.17 | 0.83 | 0.31
[123I]c1ccccc1CN1CCCCC1 [I--123-N--o-iodobenzylpiperidine] | 1.56 | 0.91 | 0.6 | 0.32 | 0.93 | 0.29 | 0.56 | 0.38
CCCNCCc1ccccc1[123I] [I--123-N--propyl-o-iodo-β-phenethylamine] | 4.03 | 2.20 | 0.29 | 0.2 | 1.17 | 0.44 | 1.54 | 0.23
CCCNCc1ccccc1[123I] [I--123-N--propyl-o-iodobenzylamine] | 3.81 | 1.84 | 0.27 | 0.32 | 1.03 | 0.59 | 0.77 | 0.59
CC(C)(C)NCc1ccccc1[123I] [I--123-N--t-butyl-o-iodobenzylamine, I-123-N-t-butyl-o-iodobenzylamine] | 8.85 | 8.16 | 0.17 | 0.11 | 1.49 | 0.89 | 1.04 | 0.49
CC(C)N(CCc1ccccc1)CCc1ccccc1[123I] [I--123-N--β-phenethyl-N--isopropyl-o-iodo-β-phenethylamine] | 1.83 | – | 0.29 | – | 0.53 | – | 2.01 | –
[123I]c1ccccc1CCNCCc1ccccc1 [I--123-N--β-phenethyl-o-iodo-β-phenethylamine] | 4.77 | 5.17 | 0.16 | 0.09 | 0.74 | 0.48 | 1.56 | 0.26
[123I]c1ccccc1NCCc1ccccc1 [I--123-N--β-phenethyl-o-iodoaniline] | 1.24 | 0.33 | 1.04 | 0.48 | 1.29 | 0.16 | 1.16 | 0.33
[123I]c1ccccc1CNCCc1ccccc1 [I--123-N--β-phenethyl-o-iodobenzylamine] | 2.52 | 0.96 | 0.27 | 0.14 | 0.68 | 0.14 | 0.56 | 0.15
[123I]c1ccc(NCCc2ccccc2)cc1 [I--123-N--β-phenethyl-p-iodoaniline] | 1.06 | – | 0.88 | – | 0.93 | – | 1.38 | –
CC(C)N[C@H](C)Cc1ccc([123I])cc1 [I--123-R--N--isopropyl-p-iodoamphetamine, I-123-R-N-isopropyl-p-iodoamphetamine] | 12.60 | 20.70 | 0.14 | 0.11 | 1.57 | 2.14 | 1.78 | 0.87
C[C@@H](N)Cc1ccc([123I])cc1 [I--123-R--p-iodoamphetamine, I-123-R-p-iodoamphetamine] | 10.60 | 18.50 | 0.15 | 0.12 | 1.38 | 2.07 | 2.43 | 1.09
CC(C)N[C@@H](C)Cc1ccc([123I])cc1 [I--123-S--N--isopropyl-p-iodoamphetamine, I-123-S-N-isopropyl-p-iodoamphetamine] | 12.80 | 15.40 | 0.11 | 0.13 | 1.32 | 1.93 | 1.28 | 0.85
C[C@H](N)Cc1ccc([123I])cc1 [I--123-S--p-iodoamphetamine, I-123-S-p-iodoamphetamine] | 7.04 | 11.30 | 0.17 | 0.17 | 1.22 | 1.88 | 1.52 | 0.86
NCCc1ccccc1[123I] [I--123-o-iodo-β-phenethylamine] | 0.49 | – | 1.43 | – | 0.7 | – | 1.22 | –
Nc1ccccc1[123I] [I--123-o-iodoaniline] | 0.28 | 0.07 | 1.7 | 0.44 | 0.47 | 0.03 | 1.02 | 0.17
Nc1ccc([123I])cc1 [I--123-p-iodoaniline] | 1.12 | 1.00 | 0.97 | 0.8 | 1.09 | 0.8 | 1.11 | 0.8
NC(=O)C(Nc1ccc([123I])cc1)c1ccccc1 (stereo not drawn) [I--123-α-(p-iodoanilino)phenylacetamide] | 1.30 | – | 0.71 | – | 0.92 | – | 1.42 | –
N#CC(N)c1ccccc1[123I] (stereo not drawn) [I--123-α-amino-o-iodophenylacetonitrile] | 1.74 | – | 0.34 | – | 0.58 | – | 0.86 | –
N#CC(Nc1ccccc1)c1ccccc1[123I] (stereo not drawn) [I--123-α-anilino-o-iodophenylacetonitrile] | 4.68 | 1.41 | 0.17 | 0.1 | 0.8 | 0.14 | 0.9 | 0.24
